Reference: patent publication US20140148446A1, “COMPOUNDS THAT ENABLE ALTERNATIVE MITOCHONDRIAL ELECTRON TRANSFER” (University of North Texas Health Science Center, priority 2010, published 2014)

Assays:
HT-22 cells = experiment: Seahorse XF-24 metabolic flux analysis (OCR, ECAR); format: cell-based
Experimental: HT22 cells were plated at 8,000/well and cultured on Seahorse XF-24 plates. Cells were grown in previously described medium and environments for 24 hr. On the day of metabolic flux analysis, cells were changed to unbuffered DMEM (DMEM base medium supplemented with 25 mM glucose, 10 mM sodium pyruvate, 31 mM NaCl, 2 mM GlutaMax, pH 7.4) and incubated at 37° C. in a non-CO2 incubator for 1 hr. All medium and injection reagents were adjusted to pH 7.4 on the day of assay. Four baseline measurements of oxygen consumption rate (OCR) and extracellular acidification rate (ECAR) were taken before sequential injection of mitochondrial inhibitors. Specific readings indicated by the arrows were taken after each addition of mitochondrial inhibitor before injection of the subsequent inhibitors. The mitochondrial inhibitors used were oligomycin (10 μM), FCCP (1 μM), and rotenone (5 μM). OCR and ECAR were automatically calculated and recorded by the Seahorse XF-24 software. After the assays, plates were saved and protein readings were measured for each well to confirm equal cell numbers per well. The percentage of change compared with the basal rates was calculated as the value of change divided by the average value of baseline readings.

mitochondrial complex II = target: T1, mitochondrial complex II (Rattus norvegicus, UniProt P21913+Q641Z9+Q6PCT8+Q920L2); experiment: Mitochondrial complex II activity assay; format: biochemical; settings: data not shown
T1 construct: the mitochondrial fraction was isolated by differential centrifugation; from tissue; host or cells: rat heart mitochondria
T1 sequence (Q920L2 35-656): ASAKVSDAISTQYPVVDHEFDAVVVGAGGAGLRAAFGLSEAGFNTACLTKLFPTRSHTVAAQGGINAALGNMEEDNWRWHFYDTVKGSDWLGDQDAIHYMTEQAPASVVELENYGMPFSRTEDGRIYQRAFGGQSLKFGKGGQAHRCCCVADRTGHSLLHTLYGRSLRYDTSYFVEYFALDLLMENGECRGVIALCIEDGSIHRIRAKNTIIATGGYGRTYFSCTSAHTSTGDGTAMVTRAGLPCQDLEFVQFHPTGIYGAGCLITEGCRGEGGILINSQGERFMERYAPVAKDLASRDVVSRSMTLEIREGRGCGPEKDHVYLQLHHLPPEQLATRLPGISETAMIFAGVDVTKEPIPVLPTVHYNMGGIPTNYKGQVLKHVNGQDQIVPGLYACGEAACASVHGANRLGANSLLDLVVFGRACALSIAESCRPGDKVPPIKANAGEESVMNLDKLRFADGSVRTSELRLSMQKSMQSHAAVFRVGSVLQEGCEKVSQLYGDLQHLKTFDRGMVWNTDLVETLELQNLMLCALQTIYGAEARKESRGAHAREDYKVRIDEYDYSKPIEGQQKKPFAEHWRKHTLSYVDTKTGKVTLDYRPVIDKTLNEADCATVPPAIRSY
T1 sequence (P21913 31-282): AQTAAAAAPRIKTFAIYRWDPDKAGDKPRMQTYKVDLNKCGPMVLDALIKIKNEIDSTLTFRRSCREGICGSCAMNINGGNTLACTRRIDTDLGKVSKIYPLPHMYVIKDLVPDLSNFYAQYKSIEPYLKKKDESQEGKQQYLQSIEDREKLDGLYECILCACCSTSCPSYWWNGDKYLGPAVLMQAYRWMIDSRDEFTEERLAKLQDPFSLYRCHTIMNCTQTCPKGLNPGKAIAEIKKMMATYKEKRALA
T1 sequence (Q641Z9 1-169): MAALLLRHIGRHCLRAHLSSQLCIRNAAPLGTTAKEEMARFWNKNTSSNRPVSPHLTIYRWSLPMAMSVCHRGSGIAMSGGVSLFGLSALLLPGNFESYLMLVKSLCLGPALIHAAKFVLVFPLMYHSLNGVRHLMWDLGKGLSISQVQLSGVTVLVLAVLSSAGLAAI
T1 sequence (Q6PCT8 57-159): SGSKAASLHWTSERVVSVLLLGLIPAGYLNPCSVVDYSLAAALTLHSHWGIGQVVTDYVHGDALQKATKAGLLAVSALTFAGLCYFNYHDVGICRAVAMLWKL
Experimental: Fresh rat heart was removed and placed in ice-cold mitochondrial isolation buffer containing 210 mM mannitol, 70 mM sucrose, 5 mM HEPES, and 1 mM EDTA, pH 7. The heart was homogenized immediately, and the mitochondrial fraction was isolated by differential centrifugation as described previously (Trounce et al., 1996). Mitochondria were stored at −80° C. until subsequent analysis.
All mitochondrial activity assays were performed according to previous publications with minimal modifications for complex I (Lenaz et al., 2004), complex I-III, complex II, complex III, and II-III (Trounce et al., 1996). […] Complex I activity was monitored by adding NADH to the mix with or without rotenone/antimycin A. The final data were normalized to blank values at time zero. The reaction was monitored in a kinetic spectrophotometer at 340 nm. Complex I activity was measured in arbitrary units and normalized to control levels for statistical analysis. Isolated mitochondria equivalent to 40-200 μg mitochondrial protein was used for each assay, except for assays with inhibitors, when larger amount of mitochondria (3 to 5 folds) were used to ensure that inhibition was distinguishable. Final data were normalized to control levels. For complex I-III activity, the reaction was initiated with the addition of NADH, cyt c was used as final substrate and its reduction was monitored at 550 nm. […]

For `CN(C)c1ccc2nc3ccc(=[N+](C)C)cc-3sc2c1` [methylene blue], which “Extracellular acidification rate (ECAR)” value (HT-22 cells; 10 μg/ml MB, two hour incubation, vehicle 44±4) is on record?
The value was 9±3 mPH/min.

And the “Oxygen consumption rate (OCR)” value (HT-22 cells; 10 μg/ml MB, two hour incubation, vehicle 264±10)?
Its value is 594 ± 19 pmol/min.

And the “Rotenone induced OCR inhibition” value (HT-22 cells; rotenone 5 μM injection)?
Its value is “dose-dependently attenuated”.

What about the “Effect on complex II activity alone” value (mitochondrial complex II) of the same compound?
Its value is “no significant effect”.
